Measured values: patent publication US12678419B2, “Compounds” (Sitryx Therapeutics Limited, priority 2020, dated 2026)
“And” between values parts separate entries of the source, which are not always exact repeats. Identical values can stand only once.

Experiments:
[1] = test system: IL-6 cytokine output from THP-1s; assay: THP-1 AlphaLISA IL-6 cytokine assay; assay type: cell-based; settings: Homo sapiens, LPS then nigericin, Table 1
Method: (§1) The cytokine inhibition profiles of compounds of formula (I) were determined in a differentiated THP-1 cell assay. All assays were performed in RPMI-1640 growth medium (Gibco), supplemented with 10% fetal bovine serum (FBS; Gibco), 1% penicillin-streptomycin and 1% sodium pyruvate unless specified otherwise. The IL-1β and IL-6 cytokine inhibition assays were each run in a background of differentiated THP-1 cells as described below. All reagents described were from Sigma-Aldrich unless specified otherwise. Compounds were prepared as 10 mM DMSO stocks.
(§2) THP-1 cells were expanded as a suspension up to 80% confluence in appropriate growth medium. Cells were harvested, suspended, and treated with an appropriate concentration of phorbol 12-myristate 13-acetate (PMA) over a 72 hr period (37° C./5% CO2).
(§3) Following 72 hrs of THP-1 cell incubation, cellular medium was removed and replaced with fresh growth media containing 1% of FBS. Working concentrations of compounds were prepared separately in 10% FBS treated growth medium and pre-incubated with the cells for 30 minutes (37° C./5% CO2). Following the 30 minute compound pre-incubation, THP-1s were treated with an appropriate concentration of LPS and the THP-1s were subsequently incubated for a 24 hr period (37° C./5% CO2). An appropriate final concentration of Nigericin was then dispensed into the THP-1 plates and incubated for 1 hour (37° C./5% CO2) before THP-1 supernatants were harvested and collected in separate polypropylene 96-well holding plates.
(§4) Reagents from each of the IL-1β and IL-6 commercial kits (Perkin Elmer) were prepared and run according to the manufacturer's instructions. Subsequently, fluorescence signal detection in a microplate reader was measured (EnVision® Multilabel Reader, Perkin Elmer).
(§5) Percentage inhibition was calculated per cytokine by normalising the sample data to the high and low controls used within each plate (+/− LPS respectively). Percentage inhibition was then plotted against compound concentration and the 50% inhibitory concentration (IC50) was determined from the resultant concentration-response curve.

[2] = test system: NRF2 (nuclear factor erythroid 2-related factor 2); assay: NRF2 +/-GSH activation assay (DiscoverX PathHunter NRF2 translocation kit, U2OS cells); assay type: cell-based; settings: for Emax (%) +GSH / Emax (%) −GSH: normalised to dimethyl fumarate high control
[3] = Hepatocyte stability assay, human; assay type: in vitro ADME; settings: human, cryopreserved hepatocytes, 10 μM compound, read-out: T½
Excerpt: (§6) Defrosted cryo-preserved hepatocytes (viability >70%) were used to determine the metabolic stability of a compound via calculation of intrinsic clearance (Clint; a measure of the removal of a compound from the liver in the absence of blood flow and cell binding). Clearance data are particularly important for in vitro work as they can be used in combination with in vivo data to predict the half-life and oral bioavailability of a drug.
(§7) The metabolic stability in hepatocytes assay involves a time-dependent reaction using both positive and negative controls. The cells were pre-incubated at 37° C. and spiked with test compound (and positive control); samples were taken at pre-determined time intervals were analysed to monitor the change in concentration of the initial drug compound over 60 minutes. A buffer incubation reaction (with no hepatocytes present) acted as a negative control and two cocktail solutions, containing compounds with known high and low clearance values (verapamil/7-hydroxycoumarin and propranolol/diltiazem), acted as positive controls. • 1. The assay was run with a cell concentration of 0.5×10^6 cells/mL in Leibovitz buffer. • 2. All compounds and controls were run in duplicate. • 3. Compound concentration was 10 μM. • 4. All compounds and controls were incubated with both cells and buffer to show turnover was due to hepatic metabolism. • 5. All wells on the incubation plate had 326.7 μL of either cells or buffer added. • 6. Prior to assay, cell and buffer-only incubation plates were preincubated for 10 mins at 37° C. • 7. The assay was initiated by adding compounds, 3.3 μL of 1 mM in 10% DMSO-90% Buffer; final DMSO concentration was 0.1%. • 8. Samples were taken at regular timepoints (0, 5, 10, 20, 40, 60 min) until 60 mins. • 9. Sample volume was 40 μL and was added to 160 μL of crash solvent (acetonitrile with internal standard) and stored on ice. • 10. At the end of the assay, the crash plates were centrifuged at 3500 rpm for 20 mins at 4° C. • 11. 80 μL of clear supernatant was removed and mixed with 80 μL of deionised water before being analysed by LC-MS/MS.
(§8) Raw LC-MS/MS data was exported to, and analysed in, Microsoft Excel for determination of intrinsic clearance. The percentage remaining of a compound was monitored using the peak area of the initial concentration as 100%. Intrinsic clearance and half-life values were calculated using a graph of the natural log of percentage remaining versus the time of reaction in minutes. Half-life (min) and intrinsic clearance (Clint in μL min^−1 10^−6 cells) values were calculated using the gradient of the graph (the elimination rate constant, k) and Equations 1 and 2.

[4] = test system: human hepatocytes; assay: Hepatocyte stability assay, human; assay type: in vitro ADME; settings: 10 μM compound
Excerpt: as §6, §7, §8

[5] = test system: IL-1β cytokine output from THP-1s; assay: THP-1 AlphaLISA IL-1β cytokine assay; assay type: cell-based; settings: Homo sapiens, LPS then nigericin, Table 1
Method: as §1, §2, §3, §4, §5

[6] = Hepatocyte stability assay, mouse; assay type: in vitro ADME; settings: mouse, cryopreserved hepatocytes, 10 μM compound, read-out: T½
Excerpt: as §6, §7, §8

[7] = test system: mouse hepatocytes; assay: Hepatocyte stability assay, mouse; assay type: in vitro ADME; settings: 10 μM compound
Excerpt: as §6, §7, §8

[8] = THP-1, differentiated THP-1 cells

Compound | IC50 [1, 8] | EC50 ([2]; +GSH) | Emax (%) +GSH ([2]; +GSH) | EC50 ([2]; −GSH) | Emax (%) −GSH ([2]; −GSH) | half-life at 10 μM [3] | Clint (μL min^−1 10^−6 cells) [4] | IC50 [5, 8] | half-life at 10 μM [6] | Clint (μL min^−1 10^−6 cells) [7] | IC50 ([1]; differentiated THP-1 cells) | IC50 ([5]; differentiated THP-1 cells)
C=C(CC(=O)OC1Cc2ccc(Cl)cc2C1)C(=O)OCC(=O)O (stereo not shown) [Example 1, 2-((4-((5-chloro-2,3-dihydro-1H-inden-2-yl)oxy)-2-methylene-4-oxobutanoyl)oxy)acetic acid] | 10.2 µM | 34.6 µM | 125% | 25.6 µM | 139% | 449 min | 3 μL min^−1 10^−6 cells | 29.2 µM | 41 min | 46 μL min^−1 10^−6 cells |  | 
C=C(CC(=O)OC1(C)Cc2cc(Cl)c(Cl)cc2C1)C(=O)OCC(=O)O [Example 21, 2-((4-((5,6-dichloro-2-methyl-2,3-dihydro-1H-inden-2-yl)oxy)-2-methylene-4-oxobutanoyl)oxy)acetic acid] | 3.2 µM | 4 µM | 55% | 5.6 µM | 151% | 35 min | 37 μL min^−1 10^−6 cells | 7.9 µM | 3 min | 483 μL min^−1 10^−6 cells |  | 
C=C(CC(=O)OC1CCc2c(Cl)cc(Cl)cc21)C(=O)O[C@H](CC(=O)O)C(F)(F)F (single isomer, unassigned; diastereomer a) [Example 22] | 1.2 µM |  |  |  |  | 7 min | 252 μL min^−1 10^−6 cells | 1.7 µM | < 3 min | >460 μL min^−1 10^−6 cells |  | 
C=C(CC(=O)OC1(C)Cc2ccc(Cl)cc2C1)C(=O)OCC(=O)O (stereo not shown) [Example 7, 2-((4-((5-chloro-2-methyl-2,3-dihydro-1H-inden-2-yl)oxy)-2-methylene-4-oxobutanoyl)oxy)acetic acid] |  | 22.3 µM | 135% | 14.5 µM | 155% | 86 min | 17 μL min^−1 10^−6 cells |  | 10 min | 142 μL min^−1 10^−6 cells | 8.2 µM | > 31.6 µM
C=C(CC(=O)OC1CCc2c(Cl)cc(Cl)cc21)C(=O)O[C@@H](CC(=O)O)C(F)(F)F (single isomer, unassigned; diastereomer b) [Example 23] | 1.2 µM |  |  |  |  | 9 min | 190 μL min^−1 10^−6 cells | 1.2 µM | < 3 min | >460 μL min^−1 10^−6 cells |  | 
C=C(CC(=O)OC1Cc2cc(Cl)c(Cl)cc2C1)C(=O)OCC(=O)O [Example 4, 2-((4-((5,6-dichloro-2,3-dihydro-1H-inden-2-yl)oxy)-2-methylene-4-oxobutanoyl)oxy)acetic acid] | 4.6 µM | 16.5 µM | 182% | 7.5 µM | 196% | 119 min | 13 μL min^−1 10^−6 cells | 12 µM | 16 min | 83 μL min^−1 10^−6 cells |  | 
C=C(CC(=O)OC1CCc2c(Cl)cc(Cl)cc21)C(=O)OCCC(=O)O (single isomer, unassigned; enantiomer 1) [Example 14, 3-((4-((4,6-dichloro-2,3-dihydro-1H-inden-1-yl)oxy)-2-methylene-4-oxobutanoyl)oxy)propanoic acid (Enantiomer 1)] |  | 36.7 µM | 118% | 27.8 µM | 193% | 75 min | 19 μL min^−1 10^−6 cells | 2.8 µM | 7 min | 224 μL min^−1 10^−6 cells |  | 
C=C(CC(=O)OC1CCCc2cc(C(F)(F)F)ccc21)C(=O)OCC(=O)O (single isomer, unassigned; enantiomer 1) [Example 31, 2-((2-methylene-4-oxo-4-((6-(trifluoromethyl)-1,2,3,4-tetrahydronaphthalen-1-yl)oxy)butanoyl)oxy)acetic acid (Enantiomer 1)] | 9.6 µM | 22.9 µM | 137% | 11.3 µM | 141% | 61 min | 29 μL min^−1 10^−6 cells | 9.6 µM | 6 min | 272 μL min^−1 10^−6 cells |  | 
C=C(CC(=O)OC1C(C)(C)c2cc(F)c(F)cc2C1(C)C)C(=O)OCC(=O)O [Example 26, 2-((4-((5,6-difluoro-1,1,3,3-tetramethyl-2,3-dihydro-1H-inden-2-yl)oxy)-2-methylene-4-oxobutanoyl)oxy)acetic acid] | 3 µM | 7.7 µM | 145% | 4.1 µM | 216% | 166 min | 9 μL min^−1 10^−6 cells | 7.9 µM | < 3 min | >460 μL min^−1 10^−6 cells |  | 
C=C(CC(=O)OC1CCc2cc(C(F)(F)F)ccc21)C(=O)OCC(=O)O (stereo not shown) [Example 17, 2-((2-methylene-4-oxo-4-((5-(trifluoromethyl)-2,3-dihydro-1H-inden-1-yl)oxy)butanoyl)oxy)acetic acid] |  | 35.4 µM | 184% | 29.2 µM | 305% | 227 min | 6 μL min^−1 10^−6 cells | 2.8 µM | 21 min | 72 μL min^−1 10^−6 cells |  | 
C=C(CC(=O)OC1CCc2cc(C(F)(F)F)ccc21)C(=O)OCC(=O)O (single isomer, unassigned; enantiomer 1) [Example 27, 2-((2-methylene-4-oxo-4-((5-(trifluoromethyl)-2,3-dihydro-1H-inden-1-yl)oxy)butanoyl)oxy)acetic acid (Enantiomer 1)] | 8.6 µM | 35.1 µM and 37.5 µM | 139% and 136% | 12.2 µM and 22.2 µM | 157% and 201% | 169 min | 9 μL min^−1 10^−6 cells | 11.9 µM | 16 min | 97 μL min^−1 10^−6 cells |  | 
